Laboratory results: patent publication US8470868B2, “Formulation for the prevention of cardiovascular disease” (priority 2000, dated 2013)
Marks after values point to notes of the source that are not given here.

Legend:
[1] = Prevalence of adverse effects in randomised placebo controlled trials (treated minus control); assay type: in vivo, human; conditions: daily dose: hydrochlorothiazide 12.5 mg, atenolol 25 mg, enalapril 5 mg, aspirin 75 mg; for Prevalence of any adverse effect in randomised trials (treated minus control) / Prevalence of serious adverse effects (those that warranted withdrawal from randomised trial) (treated minus control): atorvastatin 10 mg, folic acid 0.8 mg
From the text: The dose of each medication has been chosen to maximise the ratio of benefit to hazard. It is recognised that some persons taking a combination of six drugs would develop adverse effects that were unacceptable. The adverse effects attributable to each of the component medications would be made clear to persons taking the combined formulation and alternative formulations omitting one or more of the component ingredients, with or without a substitute ingredient, would be available for persons unable to tolerate one component. […]

[2] = randomised trials, high risk and low risk persons; platelet function not measured; cited from earlier work
[3] = Expected reduction in risk of stroke from the risk factor change (cohort studies and randomised trials); assay type: in vivo, human; conditions: daily dose: hydrochlorothiazide 12.5 mg, atenolol 25 mg, enalapril 5 mg, atorvastatin 10 mg, aspirin 75 mg, folic acid 0.8 mg
From the text: This combined estimate is based on the fact that the effects on the four different risk factors are unrelated and so the expected effects of changing each one will be independent of each other. This expectation is supported by two classes of evidence. […] For example the ratio of the risk of a disease event in persons with high blood pressure and the risk in persons with low blood pressure is similar, irrespective of the values of serum cholesterol and other risk factors. Second, some randomised clinical trials have used combinations of two of the drugs (for example beta blockers and aspirin) in patients with ischaemic heart disease and have shown that the effects are independent (that is, the relative risk in patients who took two drugs (compared with the risk in those who took none) was similar to the relative risk in persons taking one of the drugs multiplied by the relative risk in persons taking the other drug). Accordingly, the effect of the different drugs in combination in Table 3 has been calculated by multiplying the effects of each as shown in footnotes h and j.
The corresponding reductions in incidence of ischaemic heart disease and stroke are those to be expected from the blood pressure reductions, from published analyses of cohort studies and randomised controlled trials of blood pressure and ischaemic heart disease and stroke (references 1, 5).

[4] = atorvastatin 10 mg daily; cited from earlier work
[5] = cited from earlier work
[6] = Randomised controlled trials of folic acid: plasma homocysteine reduction; assay type: in vivo, human; conditions: unpublished randomised controlled trial performed by the applicant

Compound	Prevalence of any adverse effect in randomised trials (treated minus control) [1]	Prevalence of serious adverse effects (those that warranted withdrawal from randomised trial) (treated minus control) [1]	Effect on the incidence of heart attacks and stroke [2]	Expected reduction in risk of stroke [3]	Associated physiological variable (reduction produced by drug): serum cholesterol [4]	Commonest adverse effects [1]	Associated physiological variable (reduction produced by drug): plasma/serum homocysteine ([5]; folic acid 0.8 mg daily)	Maximum reduction in plasma homocysteine ([5]; meta-analysis of published trials, folic acid doses between 1 mg and 5 mg, maximum produced by 1 mg)	Lowest folic acid dose that produces the maximum reduction in homocysteine [6]
CC(=O)Oc1ccccc1C(=O)O [Aspirin]	1.8%^b	0.7%^b	reduces the incidence of heart attacks and stroke in both high risk and low risk persons	–	–	–	–	–	–
CC(C)NCC(O)COc1ccc(CC(N)=O)cc1 (centres unmarked) [Atenolol]	5.6%^a	0.9%^a	–	–	–	–	–	–	–
CC(C)c1c(C(=O)Nc2ccccc2)c(-c2ccccc2)c(-c2ccc(F)cc2)n1CC[C@@H](O)C[C@@H](O)CC(=O)O [Atorvastatin]	0.1%	<0.1%	–	50%^d	(1.8 mmol/l	–	–	–	–
CCOC(=O)[C@H](CCc1ccccc1)N[C@@H](C)C(=O)N1CCC[C@H]1C(=O)O [Enalapril]	2.1%^a	0.2%^a	–	–	–	cough	–	–	–
Nc1nc2ncc(CNc3ccc(C(=O)N[C@@H](CCC(=O)O)C(=O)O)cc3)nc2c(=O)[nH]1 [Folic acid]	<0.1%	<0.1%	–	10%^g	–	–	(3 μmol/l	3 µmol/L	0.8 mg
NS(=O)(=O)c1cc2c(cc1Cl)NCNS2(=O)=O [Hydrochlorothiazide]	1.4%^a	0.1%^a	–	–	–	–	–	–	–
